Values quoted from earlier work as cited in PMC9516332 (Frontiers in Oncology, 2022).
Where two headings read alike, the source gives them in different places.

Key:
Conditions in all cases: cited from earlier work
[1] = target: panel of 255 wild-type kinases (Homo sapiens, UniProt Q9UBS0)
[2] = target: panel of 255 wild-type kinases (Homo sapiens, UniProt P06239)
[3] = target: panel of 255 wild-type kinases (Homo sapiens, UniProt P07333)
[4] = target: T1, panel of 255 wild-type kinases (Homo sapiens, UniProt Q02156)
T1 sequence (Q02156 1-737): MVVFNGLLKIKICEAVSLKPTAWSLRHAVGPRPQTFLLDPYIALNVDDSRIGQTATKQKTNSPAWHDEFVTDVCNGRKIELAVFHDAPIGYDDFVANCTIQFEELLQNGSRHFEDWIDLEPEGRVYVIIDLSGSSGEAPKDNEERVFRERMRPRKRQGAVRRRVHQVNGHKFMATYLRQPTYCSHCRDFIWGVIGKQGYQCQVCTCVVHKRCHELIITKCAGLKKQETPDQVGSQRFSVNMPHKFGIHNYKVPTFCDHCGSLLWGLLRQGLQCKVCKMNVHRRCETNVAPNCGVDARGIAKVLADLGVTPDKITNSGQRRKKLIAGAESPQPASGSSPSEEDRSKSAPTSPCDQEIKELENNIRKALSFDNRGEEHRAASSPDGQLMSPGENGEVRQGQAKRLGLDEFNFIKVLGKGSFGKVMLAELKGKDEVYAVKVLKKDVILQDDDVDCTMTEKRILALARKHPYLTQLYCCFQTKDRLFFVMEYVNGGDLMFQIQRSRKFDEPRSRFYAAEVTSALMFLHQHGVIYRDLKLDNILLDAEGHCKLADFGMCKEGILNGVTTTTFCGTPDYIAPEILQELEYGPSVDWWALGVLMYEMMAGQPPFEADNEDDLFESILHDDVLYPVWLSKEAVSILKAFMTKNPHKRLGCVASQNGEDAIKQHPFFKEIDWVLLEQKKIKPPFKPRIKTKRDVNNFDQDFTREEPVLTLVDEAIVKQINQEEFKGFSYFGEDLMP

[5] = target: panel of 255 wild-type kinases (Homo sapiens, UniProt Q9BUB5)
[6] = target: panel of 255 wild-type kinases (Homo sapiens, UniProt O96013)
[7] = target: T2, panel of 255 wild-type kinases (Homo sapiens, UniProt O15264)
T2 sequence (O15264 1-365): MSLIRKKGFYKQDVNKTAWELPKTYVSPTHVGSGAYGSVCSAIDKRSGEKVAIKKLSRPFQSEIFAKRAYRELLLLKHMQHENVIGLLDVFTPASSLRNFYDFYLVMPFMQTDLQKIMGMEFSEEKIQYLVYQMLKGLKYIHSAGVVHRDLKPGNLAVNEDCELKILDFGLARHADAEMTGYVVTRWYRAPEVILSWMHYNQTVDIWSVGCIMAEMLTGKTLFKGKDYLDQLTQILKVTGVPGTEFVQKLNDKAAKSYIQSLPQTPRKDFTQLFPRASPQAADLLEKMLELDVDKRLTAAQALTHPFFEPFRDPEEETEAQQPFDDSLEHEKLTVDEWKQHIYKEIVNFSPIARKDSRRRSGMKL

[8] = target: T3, panel of 255 wild-type kinases (Homo sapiens, UniProt O15146)
T3 sequence (O15146 24-869): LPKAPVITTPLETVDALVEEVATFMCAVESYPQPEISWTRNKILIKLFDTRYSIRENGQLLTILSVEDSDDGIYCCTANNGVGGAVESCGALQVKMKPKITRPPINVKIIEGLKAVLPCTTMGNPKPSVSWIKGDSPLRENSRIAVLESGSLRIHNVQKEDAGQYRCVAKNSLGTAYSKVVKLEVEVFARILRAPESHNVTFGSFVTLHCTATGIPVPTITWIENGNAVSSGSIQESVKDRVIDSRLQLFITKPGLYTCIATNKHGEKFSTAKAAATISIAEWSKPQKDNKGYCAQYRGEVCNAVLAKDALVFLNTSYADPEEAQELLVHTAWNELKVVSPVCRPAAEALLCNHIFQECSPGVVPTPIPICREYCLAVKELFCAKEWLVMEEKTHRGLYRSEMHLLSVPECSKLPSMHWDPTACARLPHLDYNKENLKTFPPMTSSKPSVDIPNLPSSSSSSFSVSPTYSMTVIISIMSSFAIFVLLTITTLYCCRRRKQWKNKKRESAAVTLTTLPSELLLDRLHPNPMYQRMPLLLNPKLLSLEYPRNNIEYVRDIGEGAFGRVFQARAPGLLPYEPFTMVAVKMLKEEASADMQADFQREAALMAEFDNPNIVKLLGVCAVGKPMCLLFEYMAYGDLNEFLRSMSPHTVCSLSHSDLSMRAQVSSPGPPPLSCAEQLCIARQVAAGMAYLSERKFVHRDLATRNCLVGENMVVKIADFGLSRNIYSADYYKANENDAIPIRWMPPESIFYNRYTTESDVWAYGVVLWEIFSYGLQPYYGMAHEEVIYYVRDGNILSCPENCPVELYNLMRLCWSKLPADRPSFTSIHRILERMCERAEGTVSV

[9] = target: panel of 255 wild-type kinases (Homo sapiens, UniProt O75582)
[10] = target: panel of 255 wild-type kinases (Homo sapiens, UniProt Q9BYP7)
[11] = p70S6Kβ, 1 µmol/L single concentration, ref DOI: 10.1158/1535-7163.MCT-18-0877
[12] = kinase LCK, 1 µmol/L single concentration, ref DOI: 10.1158/1535-7163.MCT-18-0877
[13] = kinase FMS, 1 µmol/L single concentration, ref DOI: 10.1158/1535-7163.MCT-18-0877
[14] = kinase PKCε, 1 µmol/L single concentration, ref DOI: 10.1158/1535-7163.MCT-18-0877
[15] = MNK1, 1 µmol/L single concentration, ref DOI: 10.1158/1535-7163.MCT-18-0877
[16] = PAK4, 1 µmol/L single concentration, ref DOI: 10.1158/1535-7163.MCT-18-0877
[17] = p38δ, 1 µmol/L single concentration, ref DOI: 10.1158/1535-7163.MCT-18-0877
[18] = MUSK, 1 µmol/L single concentration, ref DOI: 10.1158/1535-7163.MCT-18-0877
[19] = MSK1, 1 µmol/L single concentration, ref DOI: 10.1158/1535-7163.MCT-18-0877
[20] = kinase WNK3, 1 µmol/L single concentration, ref DOI: 10.1158/1535-7163.MCT-18-0877
[21] = p70S6Kβ, 1 µmol/L single concentration, ref DOI: 10.1371/journal.pone.0092146
[22] = kinase LCK, 1 µmol/L single concentration, ref DOI: 10.1371/journal.pone.0092146
[23] = kinase FMS, 1 µmol/L single concentration, ref DOI: 10.1371/journal.pone.0092146
[24] = kinase PKCε, 1 µmol/L single concentration, ref DOI: 10.1371/journal.pone.0092146
[25] = MNK1, 1 µmol/L single concentration, ref DOI: 10.1371/journal.pone.0092146
[26] = PAK4, 1 µmol/L single concentration, ref DOI: 10.1371/journal.pone.0092146
[27] = p38δ, 1 µmol/L single concentration, ref DOI: 10.1371/journal.pone.0092146
[28] = MUSK, 1 µmol/L single concentration, ref DOI: 10.1371/journal.pone.0092146
[29] = kinase WNK3, 1 µmol/L single concentration, ref DOI: 10.1371/journal.pone.0092146

CC#CC(=O)N1CCC[C@H]1c1nc(-c2ccc(C(=O)Nc3ccccn3)cc2)c2c(N)nccn12 [acalabrutinib]
%-inhibition, p70S6Kβ [1, 11]: -14%
%-inhibition at 1 µmol/L, LCK [2, 12]: 7%
%-inhibition at 1 µmol/L, FMS [3, 13]: 8%
%-inhibition at 1 µmol/L, PKCε [4, 14]: -9%
%-inhibition, MNK1 [5, 15]: 12%
%-inhibition, PAK4 [6, 16]: -1.65%
%-inhibition, p38δ [7, 17]: -1.74%
%-inhibition, MUSK [8, 18]: -0.581%
%-inhibition, MSK1 [9, 19]: -8%
%-inhibition at 1 µmol/L, WNK3 [10, 20]: -0.259%

CCc1cc2c(cc1N1CCC(N3CCOCC3)CC1)C(C)(C)c1[nH]c3cc(C#N)ccc3c1C2=O [alectinib]
%-inhibition, p70S6Kβ [1, 11]: 9%
%-inhibition at 1 µmol/L, LCK [2, 12]: 20%
%-inhibition at 1 µmol/L, FMS [3, 13]: 19%
%-inhibition at 1 µmol/L, PKCε [4, 14]: 10%
%-inhibition, MNK1 [5, 15]: 18%
%-inhibition, PAK4 [6, 16]: 6.55%
%-inhibition, p38δ [7, 17]: 0.128%
%-inhibition, MUSK [8, 18]: 6%
%-inhibition, MSK1 [9, 19]: 0.0374%
%-inhibition at 1 µmol/L, WNK3 [10, 20]: 0.437%

COc1cc(N2CCC(N3CCN(C)CC3)CC2)ccc1Nc1ncc(Cl)c(Nc2ccccc2P(C)(C)=O)n1 [brigatinib]
%-inhibition, p70S6Kβ [1]: 98%
%-inhibition at 1 µmol/L, LCK [2]: 77%
%-inhibition at 1 µmol/L, FMS [3]: 100%
%-inhibition at 1 µmol/L, PKCε [4]: 39%
%-inhibition, MNK1 [5]: 16%
%-inhibition, PAK4 [6]: 45%
%-inhibition, p38δ [7]: 0.87%
%-inhibition, MUSK [8]: 82%
%-inhibition, MSK1 [9]: 23%
%-inhibition at 1 µmol/L, WNK3 [10]: 1%

Cc1cc(Nc2ncc(Cl)c(Nc3ccccc3S(=O)(=O)C(C)C)n2)c(OC(C)C)cc1C1CCNCC1 [ceritinib]
%-inhibition, p70S6Kβ [1, 11]: 70%
%-inhibition at 1 µmol/L, LCK [2, 12]: 6%
%-inhibition at 1 µmol/L, FMS [3, 13]: 55%
%-inhibition at 1 µmol/L, PKCε [4, 14]: 11%
%-inhibition, MNK1 [5, 15]: -1.9%
%-inhibition, PAK4 [6, 16]: 13%
%-inhibition, p38δ [7, 17]: 3%
%-inhibition, MUSK [8, 18]: 45%
%-inhibition, MSK1 [9, 19]: -1.09%
%-inhibition at 1 µmol/L, WNK3 [10, 20]: 0.598%

O=C(c1ccc(F)c(F)c1Nc1ccc(I)cc1F)N1CC(O)([C@@H]2CCCCN2)C1 [cobimetinib]
%-inhibition, p70S6Kβ [1, 11]: 5.59%
%-inhibition at 1 µmol/L, LCK [2, 12]: -3%
%-inhibition at 1 µmol/L, FMS [3, 13]: 5%
%-inhibition at 1 µmol/L, PKCε [4, 14]: 4.22%
%-inhibition, MNK1 [5, 15]: 14%
%-inhibition, PAK4 [6, 16]: 2%
%-inhibition, p38δ [7, 17]: -6%
%-inhibition, MUSK [8, 18]: 2.78%
%-inhibition, MSK1 [9, 19]: -3%
%-inhibition at 1 µmol/L, WNK3 [10, 20]: 1.84%

C[C@@H](Oc1cc(-c2cnn(C3CCNCC3)c2)cnc1N)c1c(Cl)ccc(F)c1Cl [crizotinib]
%-inhibition, p70S6Kβ [1, 21]: 6%
%-inhibition at 1 µmol/L, LCK [2, 22]: 98%
%-inhibition at 1 µmol/L, FMS [3, 23]: 92%
%-inhibition at 1 µmol/L, PKCε [4, 24]: -7%
%-inhibition, MNK1 [5, 25]: 0%
%-inhibition, PAK4 [6, 26]: -5.56%
%-inhibition, p38δ [7, 27]: -3.41%
%-inhibition, MUSK [8, 28]: 99%
%-inhibition, MSK1 [9]: -0.641%
%-inhibition at 1 µmol/L, WNK3 [10, 29]: -8%

CC(C)(C)c1nc(-c2cccc(NS(=O)(=O)c3c(F)cccc3F)c2F)c(-c2ccnc(N)n2)s1 [dabrafenib]
%-inhibition, p70S6Kβ [1, 21]: -0.554%
%-inhibition at 1 µmol/L, LCK [2, 22]: 83%
%-inhibition at 1 µmol/L, FMS [3, 23]: 15%
%-inhibition at 1 µmol/L, PKCε [4, 24]: 5%
%-inhibition, MNK1 [5, 25]: 20%
%-inhibition, PAK4 [6, 26]: 11%
%-inhibition, p38δ [7, 27]: -3.43%
%-inhibition, MUSK [8, 28]: 16%
%-inhibition, MSK1 ([9]; MSK1, 1 µmol/L single concentration, ref DOI: 10.1371/journal.pone.0092146): 0.0759%
%-inhibition at 1 µmol/L, WNK3 [10, 29]: 1.34%

C=CC(=O)N1CCC[C@@H](n2nc(-c3ccc(Oc4ccccc4)cc3)c3c(N)ncnc32)C1 [ibrutinib]
%-inhibition, p70S6Kβ [1, 11]: 0.87%
%-inhibition at 1 µmol/L, LCK [2, 12]: 100%
%-inhibition at 1 µmol/L, FMS [3, 13]: 19%
%-inhibition at 1 µmol/L, PKCε [4, 14]: 8%
%-inhibition, MNK1 [5, 15]: 15%
%-inhibition, PAK4 [6, 16]: 11%
%-inhibition, p38δ [7, 17]: -3.68%
%-inhibition, MUSK [8, 18]: 1.76%
%-inhibition, MSK1 [9, 19]: -1.18%
%-inhibition at 1 µmol/L, WNK3 [10, 20]: 7%

CO[C@@H]1[C@H](N(C)C(=O)c2ccccc2)C[C@H]2O[C@]1(C)n1c3ccccc3c3c4c(c5c6ccccc6n2c5c31)C(=O)NC4 [midostaurin]
%-inhibition, p70S6Kβ [1, 11]: 69%
%-inhibition at 1 µmol/L, LCK [2, 12]: 91%
%-inhibition at 1 µmol/L, FMS [3, 13]: 95%
%-inhibition at 1 µmol/L, PKCε [4, 14]: 84%
%-inhibition, MNK1 [5, 15]: 50%
%-inhibition, PAK4 [6, 16]: 30%
%-inhibition, p38δ [7, 17]: 3.36%
%-inhibition, MUSK [8, 18]: 94%
%-inhibition, MSK1 [9, 19]: 88%
%-inhibition at 1 µmol/L, WNK3 [10, 20]: 5.27%

C=CC(=O)Nc1cc(Nc2nccc(-c3cn(C)c4ccccc34)n2)c(OC)cc1N(C)CCN(C)C [osimertinib]
%-inhibition, p70S6Kβ [1, 11]: 20%
%-inhibition at 1 µmol/L, LCK [2, 12]: 3.62%
%-inhibition at 1 µmol/L, FMS [3, 13]: 47%
%-inhibition at 1 µmol/L, PKCε [4, 14]: -12%
%-inhibition, MNK1 [5, 15]: 99%
%-inhibition, PAK4 [6, 16]: 12%
%-inhibition, p38δ [7, 17]: -5.38%
%-inhibition, MUSK [8, 18]: 8%
%-inhibition, MSK1 [9, 19]: -0.561%
%-inhibition at 1 µmol/L, WNK3 [10, 20]: 1.5%
